Experimental data taken from the SangsterLogP compilation.

Experiment: method code G-GLC, from DOI: 10.1021/es00162a015, PMID: 19995068

SMILES	logP
Cc1ccc(-c2ccc(C)cc2)cc1	5.09
Cc1ccc(-c2ccccc2)cc1	4.63
Brc1ccc(Br)c(-c2cc(Br)c(Br)cc2Br)c1	7.1
Brc1cccc(-c2ccccc2)c1	4.85
Clc1c(Cl)c(Cl)c2c(c1Cl)Oc1ccccc1O2	6.2
Brc1c(Br)c(Br)c(-c2c(Br)c(Br)c(Br)c(Br)c2Br)c(Br)c1Br	8.58
Clc1ccc2c(c1)Oc1ccccc1O2	4.94
Clc1ccc2oc3ccc(Cl)cc3c2c1	5.44
Brc1ccccc1-c1ccccc1	4.59
Brc1ccc(-c2ccccc2)cc1	4.96
Brc1ccc(-c2ccc(Br)cc2)cc1	5.72
